Measured values from ChEMBL document CHEMBL1146586, “Chromone studies. Part 13. Synthesis and electron-impact mass spectrometric studies of 5-hydroxy-2-isopropyl-7-methoxychromone, a constituent of the medicinal plant Baeckea frutescens, and side-chain analogues” (J Nat Prod, 2003).
Values after ≈ are worked out from the molar mass of the structure shown.

Assay: Toxicity against Artemia salina by Spearman-Karber method
Format: organism-based
Conditions: in vivo

Structure (SMILES) | LC50 [µg/mL]
CCc1cc(=O)c2c(O)cc(OC)cc2o1 | 39 (≈ 177 µM)
COc1cc(OC)c2c(=O)cc(Cc3ccccc3)oc2c1 | 247 (≈ 835 µM)
COc1cc(O)c2c(=O)cc(C(C)C)oc2c1 | 23.8 (≈ 102 µM)
COc1cc(OC)c2c(=O)cc(C)oc2c1 | 315 (≈ 1430 µM)
COc1cc(O)c2c(=O)cc(Cc3ccccc3)oc2c1 | 517 (≈ 1830 µM)
COc1cc(OC)c2c(=O)cc(C(C)C)oc2c1 | 94.2 (≈ 379 µM)
CCCc1cc(=O)c2c(OC)cc(OC)cc2o1 | 106 (≈ 427 µM)
CCc1cc(=O)c2c(OC)cc(OC)cc2o1 | 200 (≈ 854 µM)
CCCc1cc(=O)c2c(O)cc(OC)cc2o1 | 31.5 (≈ 134 µM)
COc1cc(O)c2c(=O)cc(C)oc2c1 [EUGENIN] | 112 (≈ 544 µM)
